Source: patent publication US7625948B2, “Ester compound and medicinal use thereof” (Japan Tobacco Inc., priority 2002, dated 2009)
Like-named read-outs stand apart in the source and are kept apart here.

Experiments:
[1] = molecular target: T1, Microsomal triglyceride transfer protein (MTP) from bovine liver (Bos taurus, UniProt P55156); assay: Test Example 1: inhibition of interliposomal triglyceride (TG) transfer activity by MTP (also used for metabolites in Test Example 8); assay type: biochemical
T1 construct: from tissue; host or cells: bovine liver
T1 sequence (P55156 12-887): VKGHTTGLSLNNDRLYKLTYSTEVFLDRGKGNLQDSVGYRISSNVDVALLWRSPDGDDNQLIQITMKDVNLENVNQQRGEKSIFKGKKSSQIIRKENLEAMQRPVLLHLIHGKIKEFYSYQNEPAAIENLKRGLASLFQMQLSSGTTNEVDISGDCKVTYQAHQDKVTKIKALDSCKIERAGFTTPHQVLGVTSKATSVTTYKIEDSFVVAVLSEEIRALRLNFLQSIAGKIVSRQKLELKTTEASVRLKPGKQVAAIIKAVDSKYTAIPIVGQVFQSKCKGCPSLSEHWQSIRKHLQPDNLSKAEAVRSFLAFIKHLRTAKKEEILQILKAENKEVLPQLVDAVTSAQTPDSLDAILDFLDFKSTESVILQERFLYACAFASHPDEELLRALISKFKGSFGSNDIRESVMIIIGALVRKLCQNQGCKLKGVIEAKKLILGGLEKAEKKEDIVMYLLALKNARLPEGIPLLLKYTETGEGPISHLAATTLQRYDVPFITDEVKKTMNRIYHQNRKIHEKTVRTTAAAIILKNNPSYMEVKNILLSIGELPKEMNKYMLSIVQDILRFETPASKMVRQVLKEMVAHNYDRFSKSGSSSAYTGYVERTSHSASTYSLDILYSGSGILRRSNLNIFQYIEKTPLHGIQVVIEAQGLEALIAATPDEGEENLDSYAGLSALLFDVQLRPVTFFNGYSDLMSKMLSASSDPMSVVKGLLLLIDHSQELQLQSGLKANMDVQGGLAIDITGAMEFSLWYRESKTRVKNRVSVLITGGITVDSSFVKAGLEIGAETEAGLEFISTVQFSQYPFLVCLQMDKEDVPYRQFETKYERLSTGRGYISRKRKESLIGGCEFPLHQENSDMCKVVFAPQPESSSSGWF
T1 sequence (P05307 21-510 partner): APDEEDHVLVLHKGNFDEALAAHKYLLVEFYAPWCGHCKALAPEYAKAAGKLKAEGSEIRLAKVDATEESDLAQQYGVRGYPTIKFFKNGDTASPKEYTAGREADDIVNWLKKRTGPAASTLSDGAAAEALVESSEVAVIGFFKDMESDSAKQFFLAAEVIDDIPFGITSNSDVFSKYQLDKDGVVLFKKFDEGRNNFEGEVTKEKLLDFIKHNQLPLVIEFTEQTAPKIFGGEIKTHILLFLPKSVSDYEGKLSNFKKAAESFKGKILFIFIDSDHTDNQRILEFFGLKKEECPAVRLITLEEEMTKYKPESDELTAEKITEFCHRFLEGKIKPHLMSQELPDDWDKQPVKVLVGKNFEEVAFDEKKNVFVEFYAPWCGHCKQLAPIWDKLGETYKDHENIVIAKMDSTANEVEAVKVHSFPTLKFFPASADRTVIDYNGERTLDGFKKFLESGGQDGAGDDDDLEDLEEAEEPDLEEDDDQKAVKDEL
Procedure: Inhibition of Interliposomal Triglyceride (TG) Transfer Activity by MTP
Microsomal triglyceride transfer protein (MTP) from bovine liver was partially purified in such a way described below. A buffer (50 mM Tris, 250 mM sucrose, 1 mM EDTA, 0.02% NaN3 (pH 7.4)) for making a homogenate preparation was added to bovine liver, and the mixture was homogenated under ice-cooling, then centrifuged at 10,000×g (4° C., 30 minutes). The supernatant was adjusted to pH 5.1 with hydrochloric acid, and stirred for 30 minutes. The solution was further centrifuged at 10,000×g (4° C., 30 minutes), and 1 mM Tris buffer was added to the precipitated residue, and the mixture was adjusted to pH 8.6 with sodium hydroxide. After addition of 2.7M ammonium sulfate solution, the mixture was stirred for 30 minutes, then centrifuged at 10,000×g (4° C., 40 minutes). The resulting supernatant was served as a crude extraction fraction of MTP and stored at −80° C. under freezing. In its practical use, the crude extraction fraction of MTP was purified by column chromatography on diethylaminoethyl (DEAE) Sepharose using FPLC (Fast Performance Liquid Chromatography) system, and the purified MTP was used for the test.
Small unilamellar-vesicle (SUV) liposome (donor, 0.25 mol % triolein, 5 mol % cardiolipin) labeled with ^14C-triolein and non-labeled SUV liposome (acceptor, 0.25 mol % triolein) were prepared. A fixed amount of donor and acceptor, and MTP were mixed with a sample dissolved in DMSO or with DMSO. The mixture was incubated in a 15 mM Tris hydrochloride buffer (pH 7.4) containing 40 mM sodium chloride, 1 mM EDTA (ethylenediaminetetraacetic acid), 0.02% NaN3 and 0.5% bovine serum albumin at 37° C. for one hour. After completion of the incubation, a suspension of DEAE cellulose (50% v/v) in 15 mM Tris hydrochloride buffer (pH 7.4) was added to the above solution, and the mixture was centrifuged to separate the donor and the acceptor. The radioactivity in the acceptor was measured by liquid scintillation counter. The value obtained by subtracting the radioactivity in the blank from the amount of radioactivity in the acceptor of a DMSO group was determined as MTP-mediated TG transfer activity, and it was compared with the value obtained by subtracting the radioactivity in the blank from the radioactivity in a sample group. The blank was prepared by adding 15 mM Tris-HCl buffer (pH 7.4) in place of MTP. Inhibition rate (%) was calculated from the values obtained according to the following equation.
Inhibition rate (%)=100×(1 minus ((radioactivity of sample group minus radioactivity of blank group)/(radioactivity of DMSO group minus radioactivity of blank group))).
50% Inhibition rate (IC50) was determined on the basis of the above equation.
Inhibitory Activity on MTP and apo B Secretion Inhibition by Metabolites
In a similar manner to Test Examples 1 and 2, the activity of metabolites was assayed.

HepG2 cells = assay: Test Example 2: inhibition of apolipoprotein B secretion from HepG2 cells, ELISA (also used for metabolites in Test Example 8); assay type: cell-based; settings: Homo sapiens
Outline: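 HepG2 cells cultured 24 h, then exposed 24 h to compounds or metabolites in medium with 0.5% DMSO. Secreted apo B in supernatant quantified by sandwich ELISA (HRP, ABTS, 405 nm) against purified human apo B standard; % inhibition vs DMSO group, IC50 derived.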

[2] = main metabolites of the compounds (Test Example 8), read-out: MTP inhibition IC50
[3] = main metabolites of the compounds (Test Example 8), read-out: Inhibition of apo B secretion IC50
[4] = MTP-mediated 14C-triolein transfer between liposomes, 37° C., one hour, read-out: Test Example 1 MTP inhibition IC50
[5] = 24 hours, apo B in supernatant by ELISA, read-out: Test Example 2 Inhibition of apo B secretion IC50

| Structure (SMILES) | IC50 [1, 2] | IC50 (HepG2 cells; [3]) | IC50 [1, 4] | IC50 (HepG2 cells; [5]) |
| --- | --- | --- | --- | --- |
| CCNC(=O)C(CO)(C(=O)NCC)c1ccccc1 | > 1000 nM | > 10000 nM |  |  |
| O=C(O)Cc1ccc(NC(=O)c2ccccc2-c2ccc(C(F)(F)F)cc2)cc1 | > 1000 nM | > 10000 nM |  |  |
| CCCNC(=O)C(CO)(C(=O)NCCC)c1ccccc1 | > 1000 nM | > 10000 nM |  |  |
| CN(C)C(=O)c1cc(CC(=O)O)ccc1NC(=O)c1ccccc1-c1ccc(C(F)(F)F)cc1 | > 10000 nM | > 10000 nM |  |  |
| CCOC(=O)C(CO)(C(=O)OCC)c1ccccc1 | > 1000 nM | > 10000 nM |  |  |
| COc1cc(CC(=O)O)ccc1NC(=O)c1ccccc1-c1ccc(C(F)(F)F)cc1 | > 1000 nM | > 10000 nM |  |  |
| CCOC(=O)C(COC(=O)Cc1ccc(N(C)C(=O)c2ccccc2-c2ccc(C(F)(F)F)cc2)cc1)(C(=O)OCC)c1ccccc1 [Example 1-4, 2-(2-{4-[Methyl-(4′-trifluoromethylbiphenyl-2-carbonyl)amino]phenyl}acetoxymethyl)-2-phenylmalonic acid diethyl ester] |  |  | 3.4 nM | 190 nM |
| CC(C(=O)OCC1(C(=O)NCC(F)(F)F)c2ccccc2-c2ccccc21)c1ccc(NC(=O)c2ccccc2-c2ccc(C(F)(F)F)cc2)cc1 (centres unmarked) [Example 1-7] |  |  | 7.55 nM | 330 nM |
| O=C(Cc1ccc(NC(=O)c2ccccc2-c2ccc(C(F)(F)F)cc2)cc1)OCC(C(=O)NCC(F)(F)F)c1ccccc1 (centres unmarked) [Example 1-8] |  |  | 37.5 nM | 720 nM |
| CCOC(=O)C(COC(=O)Cc1ccc(NC(=O)c2ccccc2-c2ccc(C(F)(F)F)cc2)cc1)(C(=O)OCC)C1CCCC1 [Example 1-14] |  |  | 82 nM | 55 nM |
| O=C(Cc1ccc(NC(=O)c2ccccc2-c2ccc(C(F)(F)F)cc2)cc1)OCC(C(=O)OC1CCCCC1)(C(=O)OC1CCCCC1)c1ccccc1 [Example 1-22] |  |  | 66.5 nM | 180 nM |
| O=C(Cc1ccc(NC(=O)c2ccccc2-c2ccc(C(F)(F)F)cc2)cc1)OCC(C(=O)NC1CCCCC1)(C(=O)NC1CCCCC1)c1ccccc1 [Example 1-23] |  |  | 54 nM | 63 nM |
| CCOC(=O)C(COC(=O)Cc1ccc(NC(=O)c2ccccc2-c2ccc(C(F)(F)F)cc2)cc1C)(C(=O)OCC)c1ccccc1 [Example 1-27] |  |  | 7 nM | 26 nM |
| O=C(Cc1ccc(OC(=O)c2ccccc2-c2ccc(C(F)(F)F)cc2)cc1)OCC(C(=O)NCC(F)(F)F)(C(=O)NCC(F)(F)F)c1ccccc1 [Example 1-28] |  |  | 35 nM | 640 nM |
| CCOC(=O)C(COC(=O)Cc1ccc(NC(=O)c2ccccc2-c2ccc(C(F)(F)F)cc2)cc1)(C(=O)OCC)C1CCCCC1 [Example 1-31] |  |  | 84.5 nM | 61 nM |
| O=C(Cc1ccc(NC(=O)c2ccccc2-c2ccccc2)cc1)OCC(C(=O)NCC(F)(F)F)(C(=O)NCC(F)(F)F)c1ccccc1 [Example 1-32] |  |  | 8.6 nM | 720 nM |
| CCOC(=O)C(COC(=O)Cc1ccc(NC(=O)c2ccccc2-c2ccc(C(F)(F)F)cc2)cc1C(F)(F)F)(C(=O)OCC)c1ccccc1 [Example 1-34] |  |  | 23 nM | 100 nM |
| CCOC(=O)C(COC(=O)Cc1ccc(NC(=O)c2ccccc2-c2ccc(C(F)(F)F)cc2)cc1)(C(=O)OCC)c1ccccn1 [Example 1-37] |  |  | 3.5 nM | 47 nM |
| CCOC(=O)C(COC(=O)Cc1ccc(NC(=O)c2ccccc2-c2ccc(C(F)(F)F)cc2)cc1)(C(=O)OCC)c1cccnc1 [Example 1-38] |  |  | 6 nM | 320 nM |
| CCOC(=O)C(COC(=O)Cc1ccc(NC(=O)c2ccccc2-c2ccc(C(F)(F)F)cc2)c(C(F)(F)F)c1)(C(=O)OCC)c1ccccc1 [Example 1-40] |  |  | 6.9 nM | 2.1 nM |
| CCOC(=O)C(COC(=O)Cc1ccc(NC(=O)c2ccccc2-c2ccc(OC)cc2)cc1)(C(=O)OCC)c1ccccc1 [Example 1-47] |  |  | 4.5 nM | 750 nM |
| CCNC(=O)C(COC(=O)Cc1ccc(NC(=O)c2ccccc2Oc2ccccc2)cc1)(C(=O)NCC)c1ccccc1 [Example 1-51] |  |  | 0.96 nM | 530 nM |

Other lines, results leading:

| IC50 [1, 2] | IC50 (HepG2 cells; [3]) | IC50 [1, 4] | IC50 (HepG2 cells; [5]) | Structure (SMILES) |
| --- | --- | --- | --- | --- |
|  |  | 5.95 nM | 3.2 nM | CCOC(=O)C(COC(=O)Cc1ccc(NC(=O)c2ccccc2-c2ccc(C(F)(F)F)cc2)cc1)(C(=O)OCC)c1ccccc1 [Example 1-9] |
|  |  | 32 nM | 22 nM | CC(C)OC(=O)C(COC(=O)Cc1ccc(NC(=O)c2ccccc2-c2ccc(C(F)(F)F)cc2)cc1)(C(=O)OC(C)C)c1ccccc1 [Example 1-11] |
|  |  | 5 nM | 8.4 nM | CC(C)NC(=O)C(COC(=O)Cc1ccc(NC(=O)c2ccccc2-c2ccc(C(F)(F)F)cc2)cc1)(C(=O)NC(C)C)c1ccccc1 [Example 1-25] |
|  |  | 630 nM | 620 nM | CCOC(=O)C(COC(=O)Cc1ccc(NC(=O)c2ccccc2-c2ccc(C(F)(F)F)cc2)cc1)(Cc1ccccc1)C(=O)OCC [Example 1-26] |
|  |  | 2 nM | 150 nM | CNC(=O)C(COC(=O)Cc1ccc(NC(=O)c2ccccc2-c2ccc(C(F)(F)F)cc2)cc1)(C(=O)NC)c1ccccc1 [Example 1-36] |
|  |  | 0.66 nM | 160 nM | CCNC(=O)C(COC(=O)Cc1ccc(OC(=O)c2ccccc2-c2ccc(C(F)(F)F)cc2)cc1)(C(=O)NCC)c1ccccc1 [Example 1-39] |
|  |  | 4.4 nM | 35 nM | CCCCNC(=O)C(COC(=O)Cc1ccc(NC(=O)c2ccccc2-c2ccc(C(F)(F)F)cc2)cc1)(C(=O)NCCCC)c1ccccc1 [Example 1-42] |
|  |  | 3.2 nM | 9.7 nM | CCNC(=O)C(CCOC(=O)Cc1ccc(NC(=O)c2ccccc2-c2ccc(C(F)(F)F)cc2)cc1)(C(=O)NCC)c1ccccc1 [Example 1-48] |
|  |  | 20 nM | 5.3 nM | CCCNC(=O)C(CCOC(=O)Cc1ccc(NC(=O)c2ccccc2-c2ccc(C(F)(F)F)cc2)cc1)(C(=O)NCCC)c1ccccc1 [Example 1-49] |
